Drawing on US11492413B2, “Switchable antibody conjugate” (Temple University—Of The Commonwealth System of Higher …, priority 2017, dated 2022), this text covers EC50 for 1 compound.

The subject of data set [1] is Her2-positive breast cancer cell line SK-BR-3. Kind of data set: In vitro cytotoxicity assay (CellTiter Glo) on SK-BR-3. The format is cell-based. On the procedure:
SK-BR-3 cell line (ATCC) was cultured and assayed in DMEM (Cellgro) supplemented with 10% (vol/vol) FBS, 100 IU/mL penicillin, and 100 μg/mL streptomycin. Ramos cell line (ATCC) was cultured and assayed in RPMI-1640 media mixed with the same supplements as described above. For cytotoxicity assay, SK-BR-3 cancer cells were plated in flat-bottom 96 well plates at 1000 cells, 90 μL fresh cell media/well, and were incubated overnight at 37° C., 5% CO2. The MMAF compound and protein samples were filtered (0.22 μm, EMD Millipore), serially diluted in PBS buffer as 10× stock solutions, and added in triplicate to cancer cells (10 μL/well). To prevent evaporation, the edges of the plates were filled with 200 μL of bank media. […] The luminescence signals were detected on a Synergy H1 plate reader (BioTek). The viability of the cells treated with PBS buffer was used as a control, the signal of which was normalized as 100%. Ramos cancer cells were plated in flat-bottom 96 well plates at 10000 cells/well, and were directly treated with protein samples and MMAF control compound. The rest of the assay procedure was the same as described above.
Background: Cellular ATP, detected with luciferase, serves as a proxy for viable cell number.

Data set [2] has as its system CD19-positive Burkitt's lymphoma cell line Ramos. Kind of data set: In vitro cytotoxicity assay (CellTiter Glo) on Ramos. The data set is classed as cell-based. As to conditions: 72 hour incubation; mixtures αGCN4-Fab-MMAF:GCN4 fusion at molar ratio 2:1. As for the experimental part:
SK-BR-3 cell line (ATCC) was cultured and assayed in DMEM (Cellgro) supplemented with 10% (vol/vol) FBS, 100 IU/mL penicillin, and 100 μg/mL streptomycin. Ramos cell line (ATCC) was cultured and assayed in RPMI-1640 media mixed with the same supplements as described above. For cytotoxicity assay, SK-BR-3 cancer cells were plated in flat-bottom 96 well plates at 1000 cells, 90 μL fresh cell media/well, and were incubated overnight at 37° C., 5% CO2. The MMAF compound and protein samples were filtered (0.22 μm, EMD Millipore), serially diluted in PBS buffer as 10× stock solutions, and added in triplicate to cancer cells (10 μL/well). To prevent evaporation, the edges of the plates were filled with 200 μL of bank media. The plates were then incubated at 37° C., 5% CO2 for 72 hours, after which the ATP content of each well was measured by CellTiter Glo (Promega). The luminescence signals were detected on a Synergy H1 plate reader (BioTek). The viability of the cells treated with PBS buffer was used as a control, the signal of which was normalized as 100%. Ramos cancer cells were plated in flat-bottom 96 well plates at 10000 cells/well, and were directly treated with protein samples and MMAF control compound. The rest of the assay procedure was the same as described above.

Like-named read-outs stand apart in the source and are kept apart here. Non-standard residues stand in square brackets, D forms with d. Residues, ends and D or L forms follow the SMILES beside them. Dolaproine = CO[C@@H]([C@@H]1CCCN1)[C@@H](C)C(=O)O; Dil = CC[C@H](C)[C@H](NC)[C@@H](CC(=O)O)OC; NMeV = CN[C@H](C(=O)O)C(C)C

In the case of `CC[C@H](C)[C@@H]([C@@H](CC(=O)N1CCC[C@H]1[C@H](OC)[C@@H](C)C(=O)N[C@@H](Cc1ccccc1)C(=O)O)OC)N(C)C(=O)[C@@H](NC(=O)[C@@H](NC)C(C)C)C(C)C` [MMAF, monomethyl auristatin F] (H-[NMeV]V[Dil][Dolaproine]F-OH), the EC50 in data set [1] (72 hour incubation, mixtures αGCN4-Fab-MMAF:GCN4 fusion at molar ratio 2:1, read-out: EC50 (nM) on SK-BR-3) was 50 ± 39 nM; in data set [1] (range over Ramos and SK-BR-3, 72 hour incubation, read-out: EC50s, medium cytotoxicity of positive control) it was 50 to 89 nM; in data set [2], 89 ± 37 nM.
